± gives the expanded uncertainty stated by the source.
Columns and labels:
[1] = Solid-liquid equilibrium temperature; conditions: 101.3 kPa
[2] = Molar enthalpy of transition or fusion; conditions: Crystal; DSC

Row | Solid-liquid equilibrium temperature ([1]; Crystal 1) [K] | Solid-liquid equilibrium temperature ([1]; Crystal) [K] | Molar enthalpy of transition or fusion [2] [kcal/mol] | Structure (SMILES)
1 | 311.76 ± 0.8 | – | – | C1COCCOCCOCCOCCOCCO1 [1,4,7,10,13,16-hexaoxacyclooctadecane]
2 | – | 285.08 ± 0.4 | – | C1COCCO1 [1,4-dioxane]
3 | – | 249.68 ± 0.4 | 2.64 ± 0.0908 | CN1CCCC1=O [N-methylpyrrolidone]

Source: the NIST ThermoML archive (doi:10.1016/j.fluid.2004.11.006)
